Experimental data from patent EP0162545A2, “Enhanced bioconversion processes” (BETZ EUROPE, INC., priority 1984, dated 1985).
Read-outs that look alike come from different tables or passages of the source.

Columns and labels:
E. coli K12 ATCC 25404 = experiment: Batch culture biomass yield and glucose removal; assay type: cell-based, Escherichia coli
Experimental: Biomass determinations were by Millipore Filtration using Millipore type H.A. 0.45 µ filters. Samples were centrifuged @ 15,000 x for 10 min., supernatant was filtered through a dried and preweighed filter. The centrifuged pellet was then vortexed in 2 mL of D.I. water and filtered also. Samples were then dried overnight @ 105°C and re-weighed. Biomass was the weight of the dried filter less the tared filter weight.
Glucose determinations were carried out on the centrifuged reactor sample supernatants using glucose enzymatic assay (hexokinase and glucose 6-phosphate dehydrogenase) UV-15 Sigma Chemical Co., St. Louis, MO. (Assay set-up pamphlet accompanies kit). Spectrophotometric measurements were run on a Zeiss PM-6 Spektralphotometer, Carl Zeiss, 7082 Oberkochen, West Germany.
Escherichia coli K12 ATCC 25404 was grown to 175 K.U. (after 48 hours) on 10 g/1 dextrose, 75 mL/1 25x VBE, 5 mL/1 trace mixture. Ten mL of this culture was then used as seed for 300 mL of media of the same composition and dosed with varying concentrations of CCCP, myristic acid and salicylanilide.
Initial and 72 hour measurements for glucose and biomass were run by the previously described methods.

Klebsiella = experiment: microbe, parasite or virus in culture; assay type: cell-based; conditions: Klebsiella, read-out: increase in C02 blowoff
Experimental: These patterns were the results of Klebsiella cultures having been grown on glucose (^14C-label). In nature, and in waste treatment facilities, many organic carbon compounds, both simple and complex, would be available for degradation. The known uncouplers and BNS were tested for their ability to increase C02 evolution from cultures exposed to the common substrates lactate, glycine, glycerol, and a denatured protein mixture. […] This was expected in the case of glycine but it was thought that a more complex protein might be degraded and portions used for some energyproduction. It was hoped that these compounds might be a more representative group (more abundant in waste treatment) than simple sugars for determining the extent of activity of BNS. […] Lactate, a common intermediate in microbial metabolism, and a compound which would normally be used as an oxidizable substrate for running the cytochrome chain, gave a more representative response. BNS treated cultures gave increased C02 blowoff (an increase as high as 130% at 5 µg/mL) as did both known uncouplers. […] When glycerol was used as the labeled substrate, BNS treated cultures gave increased C02 at concentrations up to 5 µg/mL.
The procedure used for determining the CO2 evolution was similar to the procedure described previously. Cells having been grown overnight in MSM and glucose were centrifuged and resuspended in MSM + glucose (cold) and used as inoculum. No other cold carbon source (unlabeled) was added. ^14C-labeled substrates (lactate, glycerol, etc.) obtained from New England Nuclear were used and supplied the radiolabeled carbon for the detection of ^14CO2. BNS was utilized in concentrations of 0.5 - 10 µg/mL. Fixed concentrations of 5 µg/mL CCCP and DNP were included for comparative purposes. The following data were obtained in these experiments.

Klebsiella pneumoniae [1] = experiment: microbe, parasite or virus in culture; assay type: cell-based
Experimental: (§1) The first series of experiments involved the measurement of the amount of C02 evolved from aerobically growing cultures of the representative organism Klebsiella in the presence and absence of uncoupling agents. The known uncouplers 2, 4 dinitrophenol (DNP) and carbonyl cyanide m-chlorophenyl hydrazone (CCCP) were tested along with bis (tricholoromethyl) sulfone (TCMS) and beta-bromo-beta-nitrostyrene (BNS). It can be seen from the data that CCCP caused large increases in C02 evolution over the untreated controls at all concentrations used, with the largest increase (29%) at 5 µg/mL (24.4 uM). […] Bacterial counts also reflected the lack of uncoupling activity. […] Largest increase in C02 blowoff came at 50 ppm (32%). BNS gave a mixed pattern as opposed to those of DNP and CCCP. […] Even at 10 µg/mL, the bacterial count was reduced ~ 50% while still giving greater C02 blowoff than control cultures.
The procedure utilized to perform the first series of experiments was as follows: • Sealed vials containing 8 mL of minimal salts medium (Composition: K2HPO4-39, KH2PO4-lg, MgSO4-0.2g, (NN4)2SO4^-1g, D-glucose-5g (optional) in 1 liter. Autoclave and adjust pH to 6.8) lacking any carbon source were each injected with 1 mL of a suspension of Klebsiella pneumoniae. (Klebsiella was grown overnight, shaken at 37°C, in minimal salts medium containing glucose to a heavy cell suspension. The cells were centrifuged at 10,000 g and resuspended to a turbidity of 150 Klett units [Klett-Summerson photometer, #42 blue filter) in minimal salts medium [MSM], no glucose. These cells were again centrifuged, and resuspended in MSM at 1/10 the volume used previously. This 10X cell suspension was used as the standard inoculum for the vials.) The vials were- simultaneously injected with 1 mL of a 1 µ Ci/mL solution of ^14C-U-D glucose and the appropriate concentration of material to be tested. The compounds tested were fed at concentrations of […]. Controls received no test material and all vials were shaken during the course of the experiments at 37°C. Vials were read for C02 blowoff at the times indicated on the appropriate Tables. Standard bacterial counts were done on each vial after the end of each experimental series. [formula] [formula] [formula] [formula]

Klebsiella pneumoniae [2] = experiment: Standard bacterial counts on the CO2 blowoff vials, first series; assay type: cell-based
Experimental: as §1
The procedure utilized to perform the first series of experiments was as follows: • Sealed vials containing 8 mL of minimal salts medium (Composition: K2HPO4-39, KH2PO4-lg, MgSO4-0.2g, (NN4)2SO4^-1g, D-glucose-5g (optional) in 1 liter. Autoclave and adjust pH to 6.8) lacking any carbon source were each injected with 1 mL of a suspension of Klebsiella pneumoniae. […] Vials were read for C02 blowoff at the times indicated on the appropriate Tables. […]

Saccharomyces cerevisiae = experiment: Yeast-alcohol batch fermentation with uncoupler dosing; assay type: cell-based; conditions: 2.0 ppm CCCP
Experimental: Saccharomyces cerevisiae (Institute of Marine Sciences, U. Of Miami Culture Collection) was used in the following fermentation medium: 1% glucose, 13.4 g/1 yeast nitrogen Base (BBL, Cockeysville, MD), 0.5 g/1 sodium thioglycollate. pH was 5.68, temperature 33°C, agitation 8.5/10 on Fisher Versamix stirplate. CCCP was dosed at 2.0 mg/l.
Reaction vessel was a 3.0 liter working volume fermenter jar - New Brunswick Scientific. Temperature control was held by recirculation of a 33°C hot water bath through the reactor heating coils by a Little Giant Model 1 submergible pump (Little Giant Pump Co., Oklahoma City, OK).
Glucose and biomass determinations were made by the previously mentioned techniques. Ethanol determinations was by the alcohol dehydrogenase method 331-UV (Sigma Chemical Co., St. Louis, MO). Reactors were run for approximately 150 hours with sampling times varying throughout the experiment.

[3] = Escherichia coli, ATCC25404, 72 h, read-out: drop in biomass yield

Compound: N#CC(C#N)=NNc1cccc(Cl)c1 [CCCP, carbonyl cyanide m-chlorophenyl hydrazone]
- glucose removal efficiency (E. coli K12 ATCC 25404; 0.4 ppm, batch, 72 hour): 100%
- carbon (glucose) removal efficiency (E. coli K12 ATCC 25404; 1.0 ppm, batch, 72 hour): 98.2%
- drop of glucose removal efficiency from control (E. coli K12 ATCC 25404; 1.9 ppm, batch, 72 hour): 4.8%
- glucose removal efficiency (E. coli K12 ATCC 25404; 1.9 ppm, batch, 72 hour): 95.2%
- inhibition of growth at 0.4 ppm (E. coli K12 ATCC 25404; [3]): 14.6%
- inhibition of growth at 1 ppm (E. coli K12 ATCC 25404; [3]): 28%
- inhibition of growth at 1.9 ppm (E. coli K12 ATCC 25404; [3]): 42.7%
- activation at 5 µg/mL (Klebsiella; 14C-lactate as labeled substrate, 5 µg/mL): 151%
- activation at 5 µg/mL (Klebsiella pneumoniae [1]; Klebsiella pneumoniae, 5 µg/mL (24.4 uM), 14C-glucose, read-out: largest increase in C02 evolution over the untreated controls): 29%
- bacterial counts (Klebsiella pneumoniae [2]; 50 µg/mL): the same as the control levels
- g ETOH formed hr. max. (Saccharomyces cerevisiae): 0.45
- g ETOH formed hr. max., change vs Control (Saccharomyces cerevisiae): +41.6%
- g glucose consumed/hr. max. (Saccharomyces cerevisiae): 0.39
- g glucose consumed/hr. max., change vs Control (Saccharomyces cerevisiae): +88%
- g cells mole glucosef (Saccharomyces cerevisiae; f = final): 6.59
- g cells mole glucosef, change vs Control (Saccharomyces cerevisiae; f = final): -44.1%
- mole ETOH/Mole Glucosef g cells (Saccharomyces cerevisiae; f = final): 4.02
- mole ETOH/Mole Glucosef g cells, change vs Control (Saccharomyces cerevisiae; f = final): +105.1%
- moles ETOH/ mole glucosef* (Saccharomyces cerevisiae; f = final): 1.39
- moles ETOH/ mole glucosef*, change vs Control (Saccharomyces cerevisiae; f = final): +9.4%

Compound: O=S(=O)(C(Cl)(Cl)Cl)C(Cl)(Cl)Cl [TCMS, bis (tricholoromethyl) sulfone]
- uncoupling property (C02 evolution) (Klebsiella pneumoniae [1]; all concentrations, 14C-glucose): no uncoupling property

Compound: O=[N+]([O-])c1ccc(O)c([N+](=O)[O-])c1 [DNP, 2, 4 dinitrophenol, reference compound]
- activation at 5 µg/mL (Klebsiella): 83%
- activation at 50 ppm (Klebsiella pneumoniae [1]; Klebsiella pneumoniae, read-out: Largest increase in C02 blowoff): 32%
- minimal effective concentration (Klebsiella pneumoniae [1]; Klebsiella pneumoniae, read-out: concentrations causing significant increases in C02 blowoff): > 5 µg/mL
- toxic effects (bacterial counts) (Klebsiella pneumoniae [2]; even at 50 ppm): no toxic effects

Compound: O=C(Nc1ccccc1)c1ccccc1O [Salicylanilide, salicylanilide]
- glucose removal efficiency (E. coli K12 ATCC 25404; 50.5 ppm, batch, 72 hour): 99.7%
- inhibition of growth at 50.5 ppm (E. coli K12 ATCC 25404; Escherichia coli, ATCC25404, 50.5 ppm, batch, 72 hour, read-out: drop in biomass yield): ≤ 40.2%

Compound: CCCCCCCCCCCCCC(=O)O [Myristic acid, myristic acid]
- inhibition of growth at 25 ppm (E. coli K12 ATCC 25404; Escherichia coli, ATCC25404, 25 ppm, batch, 72 hour, read-out: reduction in biomass yield): 19.5%
- inhibitory effects on glucose removal (E. coli K12 ATCC 25404; up to 25 ppm, batch, 72 hour): no inhibitory effects
